Key:
[1] = target: T1, 5-hydroxytryptamine receptor 2C (Homo sapiens, UniProt P28335)
T1 sequence (P28335 whole entry): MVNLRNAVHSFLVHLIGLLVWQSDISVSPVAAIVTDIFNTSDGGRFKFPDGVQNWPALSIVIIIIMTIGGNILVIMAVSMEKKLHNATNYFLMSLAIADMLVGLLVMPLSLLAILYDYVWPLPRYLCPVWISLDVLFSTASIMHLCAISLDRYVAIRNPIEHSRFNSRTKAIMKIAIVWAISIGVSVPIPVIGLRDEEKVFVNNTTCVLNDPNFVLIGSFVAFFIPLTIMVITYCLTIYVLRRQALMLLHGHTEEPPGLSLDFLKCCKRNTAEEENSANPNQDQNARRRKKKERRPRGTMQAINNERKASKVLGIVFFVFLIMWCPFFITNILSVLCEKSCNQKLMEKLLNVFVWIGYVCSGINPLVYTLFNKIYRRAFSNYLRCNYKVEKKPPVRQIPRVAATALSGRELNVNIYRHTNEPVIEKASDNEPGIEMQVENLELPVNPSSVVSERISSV

[2] = target: Gamma-aminobutyric acid receptor subunit alpha-1 (Rattus norvegicus, UniProt P62813)
Thromboxane A2 receptor = target: T2, Thromboxane A2 receptor (Homo sapiens, UniProt P21731)
T2 sequence (P21731 whole entry): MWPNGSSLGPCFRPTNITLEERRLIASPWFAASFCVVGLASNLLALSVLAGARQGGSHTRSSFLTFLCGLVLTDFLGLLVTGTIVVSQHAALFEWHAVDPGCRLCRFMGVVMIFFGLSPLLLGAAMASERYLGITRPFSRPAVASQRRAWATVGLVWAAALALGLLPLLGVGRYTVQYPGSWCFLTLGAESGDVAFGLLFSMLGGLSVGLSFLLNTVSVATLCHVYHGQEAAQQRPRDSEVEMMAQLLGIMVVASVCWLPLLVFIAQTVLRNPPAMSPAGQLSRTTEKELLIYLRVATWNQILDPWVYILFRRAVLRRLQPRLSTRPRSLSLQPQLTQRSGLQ

Vasopressin V1a receptor = Vasopressin V1a receptor (Homo sapiens, UniProt P37288)
[3] = target: Sodium-dependent dopamine transporter (Homo sapiens, UniProt Q01959)
[4] = target: T3, Cholecystokinin receptor type A (Homo sapiens, UniProt P32238)
T3 sequence (P32238 whole entry): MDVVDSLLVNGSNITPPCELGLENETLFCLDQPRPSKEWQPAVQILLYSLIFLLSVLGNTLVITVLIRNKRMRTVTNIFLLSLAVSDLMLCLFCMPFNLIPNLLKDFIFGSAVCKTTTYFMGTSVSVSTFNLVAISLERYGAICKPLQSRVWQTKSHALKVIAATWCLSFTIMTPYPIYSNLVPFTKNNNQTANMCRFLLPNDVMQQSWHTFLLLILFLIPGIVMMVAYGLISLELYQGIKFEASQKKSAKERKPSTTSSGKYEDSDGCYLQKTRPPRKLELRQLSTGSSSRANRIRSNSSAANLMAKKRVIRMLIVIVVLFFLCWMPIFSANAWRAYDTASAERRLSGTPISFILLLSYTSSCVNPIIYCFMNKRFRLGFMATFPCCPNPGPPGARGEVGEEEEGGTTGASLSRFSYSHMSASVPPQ

[5] = target: 5-hydroxytryptamine receptor 2B (Homo sapiens, UniProt P41595); format: functional, cell-based
Glucocorticoid receptor = target: T4, Glucocorticoid receptor (Homo sapiens, UniProt P04150)
T4 sequence (P04150 whole entry): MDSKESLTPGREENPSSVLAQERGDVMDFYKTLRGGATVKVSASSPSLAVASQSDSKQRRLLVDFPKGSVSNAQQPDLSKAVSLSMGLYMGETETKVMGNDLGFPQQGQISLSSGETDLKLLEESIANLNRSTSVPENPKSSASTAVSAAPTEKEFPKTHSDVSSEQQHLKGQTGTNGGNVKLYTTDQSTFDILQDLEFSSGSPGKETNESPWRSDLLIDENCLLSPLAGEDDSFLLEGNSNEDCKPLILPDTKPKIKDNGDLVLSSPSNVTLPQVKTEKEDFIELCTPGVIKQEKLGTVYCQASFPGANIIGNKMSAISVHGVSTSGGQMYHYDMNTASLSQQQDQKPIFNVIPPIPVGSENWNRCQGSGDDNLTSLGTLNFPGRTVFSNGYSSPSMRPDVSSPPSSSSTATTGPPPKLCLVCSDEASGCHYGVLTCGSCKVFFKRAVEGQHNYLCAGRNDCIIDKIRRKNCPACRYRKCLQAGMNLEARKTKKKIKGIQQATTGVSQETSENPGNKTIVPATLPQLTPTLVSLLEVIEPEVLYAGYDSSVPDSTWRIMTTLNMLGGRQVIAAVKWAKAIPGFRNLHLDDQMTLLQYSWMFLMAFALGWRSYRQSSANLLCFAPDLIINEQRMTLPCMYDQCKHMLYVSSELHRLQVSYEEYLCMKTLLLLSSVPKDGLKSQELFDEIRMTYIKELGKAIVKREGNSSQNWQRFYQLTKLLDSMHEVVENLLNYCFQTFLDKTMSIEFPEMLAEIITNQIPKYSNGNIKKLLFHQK

Histamine H3 receptor = Histamine H3 receptor (Homo sapiens, UniProt Q9Y5N1)
[6] = target: T5, 5-hydroxytryptamine receptor 3A (Homo sapiens, UniProt P46098); format: functional
T5 sequence (P46098 whole entry): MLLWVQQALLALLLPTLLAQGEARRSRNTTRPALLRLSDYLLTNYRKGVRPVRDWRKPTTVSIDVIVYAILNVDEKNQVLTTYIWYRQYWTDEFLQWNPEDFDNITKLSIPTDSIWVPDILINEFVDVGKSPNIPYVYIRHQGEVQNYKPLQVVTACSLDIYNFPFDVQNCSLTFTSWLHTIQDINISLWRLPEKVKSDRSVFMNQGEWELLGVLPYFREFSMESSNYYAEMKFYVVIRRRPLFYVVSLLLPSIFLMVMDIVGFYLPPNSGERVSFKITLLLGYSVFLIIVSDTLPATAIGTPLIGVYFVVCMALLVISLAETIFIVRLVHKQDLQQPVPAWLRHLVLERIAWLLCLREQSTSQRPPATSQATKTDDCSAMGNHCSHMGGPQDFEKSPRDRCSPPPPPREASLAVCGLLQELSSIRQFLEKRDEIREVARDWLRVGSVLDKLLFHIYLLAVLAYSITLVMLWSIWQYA

[7] = target: Growth hormone secretagogue receptor type 1 (Homo sapiens, UniProt Q92847)
[8] = target: Sodium-dependent noradrenaline transporter (Homo sapiens, UniProt P23975)
[9] = target: cGMP-inhibited 3',5'-cyclic phosphodiesterase 3A (Homo sapiens, UniProt Q14432); format: functional
Further: assay procedure not described here.

Chain of Sodium-dependent dopamine transporter (Q01959 whole entry): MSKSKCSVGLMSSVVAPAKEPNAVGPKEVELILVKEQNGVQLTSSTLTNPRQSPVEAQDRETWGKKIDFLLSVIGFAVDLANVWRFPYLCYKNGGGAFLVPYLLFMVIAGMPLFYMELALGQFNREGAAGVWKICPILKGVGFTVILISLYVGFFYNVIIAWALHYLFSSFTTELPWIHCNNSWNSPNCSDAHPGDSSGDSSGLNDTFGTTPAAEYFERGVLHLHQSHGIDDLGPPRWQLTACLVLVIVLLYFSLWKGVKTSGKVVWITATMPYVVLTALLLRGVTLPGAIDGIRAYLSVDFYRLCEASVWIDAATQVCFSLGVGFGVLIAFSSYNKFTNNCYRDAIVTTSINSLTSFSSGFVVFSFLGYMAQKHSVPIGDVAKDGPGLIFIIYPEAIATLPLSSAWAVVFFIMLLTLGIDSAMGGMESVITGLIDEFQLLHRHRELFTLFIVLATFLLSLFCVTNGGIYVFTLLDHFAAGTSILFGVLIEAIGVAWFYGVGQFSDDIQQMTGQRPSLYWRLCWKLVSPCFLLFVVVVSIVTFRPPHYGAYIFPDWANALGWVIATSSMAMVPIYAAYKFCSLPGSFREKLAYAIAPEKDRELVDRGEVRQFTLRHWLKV
Chain of Gamma-aminobutyric acid receptor subunit alpha-1 (P62813 whole entry): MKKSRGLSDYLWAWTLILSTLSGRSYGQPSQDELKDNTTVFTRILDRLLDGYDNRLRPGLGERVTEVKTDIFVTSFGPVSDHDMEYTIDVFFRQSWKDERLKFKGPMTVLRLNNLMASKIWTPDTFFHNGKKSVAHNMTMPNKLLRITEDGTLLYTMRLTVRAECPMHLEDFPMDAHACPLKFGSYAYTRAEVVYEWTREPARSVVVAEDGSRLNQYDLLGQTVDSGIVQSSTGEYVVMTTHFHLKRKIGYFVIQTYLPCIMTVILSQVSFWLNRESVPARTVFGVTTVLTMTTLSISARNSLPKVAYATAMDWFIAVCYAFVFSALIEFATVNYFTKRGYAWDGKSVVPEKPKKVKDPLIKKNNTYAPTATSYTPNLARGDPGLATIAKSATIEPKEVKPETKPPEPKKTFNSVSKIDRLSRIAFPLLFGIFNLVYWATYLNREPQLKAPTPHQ
Chain of Growth hormone secretagogue receptor type 1 (Q92847 whole entry): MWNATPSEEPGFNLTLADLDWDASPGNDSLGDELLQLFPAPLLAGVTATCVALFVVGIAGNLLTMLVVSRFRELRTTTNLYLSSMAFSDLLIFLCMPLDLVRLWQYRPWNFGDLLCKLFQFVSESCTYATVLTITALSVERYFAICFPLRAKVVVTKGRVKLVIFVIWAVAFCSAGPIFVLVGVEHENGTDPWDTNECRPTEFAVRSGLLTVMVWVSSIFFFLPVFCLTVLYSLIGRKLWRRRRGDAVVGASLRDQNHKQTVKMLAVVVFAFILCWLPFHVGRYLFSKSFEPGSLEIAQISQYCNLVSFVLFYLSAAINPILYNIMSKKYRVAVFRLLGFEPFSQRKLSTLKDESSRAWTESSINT
Chain of 5-hydroxytryptamine receptor 2B (P41595 whole entry): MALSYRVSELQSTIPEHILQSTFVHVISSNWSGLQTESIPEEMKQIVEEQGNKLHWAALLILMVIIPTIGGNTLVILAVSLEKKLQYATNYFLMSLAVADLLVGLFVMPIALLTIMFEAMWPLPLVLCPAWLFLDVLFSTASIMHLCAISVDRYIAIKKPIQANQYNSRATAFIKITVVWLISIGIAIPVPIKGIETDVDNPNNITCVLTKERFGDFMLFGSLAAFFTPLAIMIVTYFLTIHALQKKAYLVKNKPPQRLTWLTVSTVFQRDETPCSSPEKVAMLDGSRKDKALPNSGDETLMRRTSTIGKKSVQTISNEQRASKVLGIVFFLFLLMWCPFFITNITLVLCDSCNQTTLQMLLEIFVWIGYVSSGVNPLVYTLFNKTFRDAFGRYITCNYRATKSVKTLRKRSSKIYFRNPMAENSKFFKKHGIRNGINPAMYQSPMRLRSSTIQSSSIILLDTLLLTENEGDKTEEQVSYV
Chain of Histamine H3 receptor (Q9Y5N1 whole entry): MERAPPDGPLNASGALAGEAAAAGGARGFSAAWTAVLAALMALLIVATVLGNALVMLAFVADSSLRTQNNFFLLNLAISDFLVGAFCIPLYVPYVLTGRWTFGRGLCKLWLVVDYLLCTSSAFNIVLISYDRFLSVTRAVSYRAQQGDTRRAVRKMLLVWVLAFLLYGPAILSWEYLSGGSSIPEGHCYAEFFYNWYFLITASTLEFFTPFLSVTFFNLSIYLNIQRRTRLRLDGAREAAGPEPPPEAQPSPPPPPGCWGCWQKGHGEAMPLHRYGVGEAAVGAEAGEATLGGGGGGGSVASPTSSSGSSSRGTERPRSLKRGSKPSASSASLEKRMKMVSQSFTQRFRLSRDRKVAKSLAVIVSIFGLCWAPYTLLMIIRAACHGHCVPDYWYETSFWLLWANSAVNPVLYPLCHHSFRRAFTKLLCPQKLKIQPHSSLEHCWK
Chain of Vasopressin V1a receptor (P37288 whole entry): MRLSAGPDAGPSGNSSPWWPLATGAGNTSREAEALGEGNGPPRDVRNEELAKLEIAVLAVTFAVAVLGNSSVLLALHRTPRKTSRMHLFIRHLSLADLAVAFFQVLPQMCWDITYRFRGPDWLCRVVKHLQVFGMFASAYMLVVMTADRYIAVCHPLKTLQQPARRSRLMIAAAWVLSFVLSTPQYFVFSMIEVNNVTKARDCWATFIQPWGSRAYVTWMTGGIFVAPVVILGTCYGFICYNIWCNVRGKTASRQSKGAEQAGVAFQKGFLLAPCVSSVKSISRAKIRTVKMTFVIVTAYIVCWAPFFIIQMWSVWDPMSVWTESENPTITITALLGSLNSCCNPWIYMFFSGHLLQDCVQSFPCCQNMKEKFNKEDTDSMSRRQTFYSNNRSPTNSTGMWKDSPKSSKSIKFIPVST
Chain of cGMP-inhibited 3',5'-cyclic phosphodiesterase 3A (Q14432 whole entry): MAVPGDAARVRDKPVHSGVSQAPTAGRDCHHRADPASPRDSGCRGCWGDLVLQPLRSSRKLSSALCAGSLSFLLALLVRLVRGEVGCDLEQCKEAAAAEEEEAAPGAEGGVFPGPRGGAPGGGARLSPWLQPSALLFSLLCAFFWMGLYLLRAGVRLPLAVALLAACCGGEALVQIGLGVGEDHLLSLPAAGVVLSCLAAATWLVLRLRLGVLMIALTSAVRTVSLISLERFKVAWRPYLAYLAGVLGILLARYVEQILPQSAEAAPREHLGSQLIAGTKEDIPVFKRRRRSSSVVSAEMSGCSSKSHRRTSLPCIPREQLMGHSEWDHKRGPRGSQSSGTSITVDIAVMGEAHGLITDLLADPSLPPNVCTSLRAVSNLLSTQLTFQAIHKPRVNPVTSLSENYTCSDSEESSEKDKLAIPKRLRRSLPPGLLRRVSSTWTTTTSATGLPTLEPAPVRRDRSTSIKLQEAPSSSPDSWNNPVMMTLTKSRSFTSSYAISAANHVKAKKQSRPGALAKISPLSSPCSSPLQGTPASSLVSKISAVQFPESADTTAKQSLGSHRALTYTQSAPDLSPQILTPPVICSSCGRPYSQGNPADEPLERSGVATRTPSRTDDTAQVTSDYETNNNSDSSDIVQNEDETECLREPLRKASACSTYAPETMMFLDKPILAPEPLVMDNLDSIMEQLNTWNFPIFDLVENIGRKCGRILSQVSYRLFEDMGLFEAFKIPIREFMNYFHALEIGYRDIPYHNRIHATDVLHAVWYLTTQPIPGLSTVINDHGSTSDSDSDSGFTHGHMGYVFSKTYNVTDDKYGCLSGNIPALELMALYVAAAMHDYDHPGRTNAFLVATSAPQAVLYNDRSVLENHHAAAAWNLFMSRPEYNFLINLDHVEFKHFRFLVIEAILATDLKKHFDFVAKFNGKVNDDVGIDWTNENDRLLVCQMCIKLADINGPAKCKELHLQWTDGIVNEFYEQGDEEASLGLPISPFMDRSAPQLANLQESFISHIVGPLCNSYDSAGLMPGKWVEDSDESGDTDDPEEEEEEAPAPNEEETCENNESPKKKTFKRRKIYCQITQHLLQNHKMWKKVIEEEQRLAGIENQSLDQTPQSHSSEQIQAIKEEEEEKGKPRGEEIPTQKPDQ
Chain of Sodium-dependent noradrenaline transporter (P23975 whole entry): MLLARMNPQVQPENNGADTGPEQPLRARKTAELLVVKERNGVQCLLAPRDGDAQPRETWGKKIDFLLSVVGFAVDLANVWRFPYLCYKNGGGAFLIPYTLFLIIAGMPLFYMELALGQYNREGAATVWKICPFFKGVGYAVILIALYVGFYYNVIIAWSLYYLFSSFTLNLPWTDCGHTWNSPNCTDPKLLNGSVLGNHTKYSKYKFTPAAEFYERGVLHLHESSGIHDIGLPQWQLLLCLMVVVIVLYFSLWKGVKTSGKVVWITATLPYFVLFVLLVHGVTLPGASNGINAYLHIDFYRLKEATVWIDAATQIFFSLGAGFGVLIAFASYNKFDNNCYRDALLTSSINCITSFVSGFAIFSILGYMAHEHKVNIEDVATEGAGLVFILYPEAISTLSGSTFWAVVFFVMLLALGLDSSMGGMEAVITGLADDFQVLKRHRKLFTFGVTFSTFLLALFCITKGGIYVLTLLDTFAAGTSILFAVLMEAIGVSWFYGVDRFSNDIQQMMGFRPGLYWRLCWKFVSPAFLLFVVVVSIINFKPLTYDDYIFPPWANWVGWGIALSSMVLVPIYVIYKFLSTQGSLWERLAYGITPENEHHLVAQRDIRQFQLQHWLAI

| Structure (SMILES) | AC50 [1] | AC50 [2] | AC50 (Thromboxane A2 receptor) | AC50 (Vasopressin V1a receptor) | AC50 [3] | AC50 [4] | AC50 [5] | AC50 (Glucocorticoid receptor) | AC50 (Histamine H3 receptor) | AC50 [6] | AC50 [7] | AC50 [8] | AC50 [9] |
| --- | --- | --- | --- | --- | --- | --- | --- | --- | --- | --- | --- | --- | --- |
| CC(C)N(CCCCOCC(=O)O)c1cnc(-c2ccccc2)c(-c2ccccc2)n1 | > 30 µM | > 30 µM | 28 µM | > 30 µM | > 30 µM | > 10 µM | > 30 µM | > 30 µM | > 30 µM | > 30 µM | > 30 µM | > 30 µM | > 30 µM |
| C[N+]12CCC(CC1)C(OC(=O)C(O)(c1ccccc1)c1ccccc1)C2 (stereo unspecified) | > 30 µM | – | > 30 µM | > 30 µM | > 30 µM | > 30 µM | > 30 µM | > 30 µM | > 30 µM | > 30 µM | > 30 µM | > 30 µM | > 30 µM |
| O=C(CCCN1CCC(O)(c2ccc(Br)cc2)CC1)c1ccc(F)cc1 [BROMPERIDOL] | > 30 µM | > 30 µM | > 30 µM | > 30 µM | – | > 30 µM | 7.3 µM | > 30 µM | > 30 µM | > 30 µM | 6.9 µM | – | > 30 µM |
| CO/N=C(\C(=O)N[C@@H]1C(=O)N2C(C(=O)O)=CCS[C@H]12)c1csc(N)n1 [CEFTIZOXIME] | – | – | – | > 30 µM | > 30 µM | > 30 µM | > 30 µM | > 30 µM | > 30 µM | – | > 30 µM | > 30 µM | > 30 µM |
| CO/N=C(\C(=O)N[C@@H]1C(=O)N2C(C(=O)O)=C(CSc3nc(=O)c(=O)[nH]n3C)CS[C@H]12)c1csc(N)n1 [CEFTRIAXONE] | > 30 µM | – | – | > 30 µM | > 30 µM | > 30 µM | > 30 µM | > 30 µM | > 30 µM | > 30 µM | > 30 µM | > 30 µM | > 30 µM |
| COc1cc(N)c(Cl)cc1C(=O)NC1CCN(CCCOc2ccc(F)cc2)CC1OC (stereo unspecified) [CISAPRIDE] | – | > 10 µM | 22.9 µM | > 30 µM | > 30 µM | > 30 µM | – | > 30 µM | > 10 µM | > 30 µM | > 30 µM | > 30 µM | > 30 µM |
| CCc1cc2c(s1)-n1c(C)nnc1CN=C2c1ccccc1Cl [ETIZOLAM] | > 30 µM | – | > 30 µM | > 30 µM | > 30 µM | > 30 µM | > 30 µM | > 30 µM | > 30 µM | > 30 µM | > 30 µM | > 30 µM | > 30 µM |
| O=c1[nH]c2ccccc2n1CCCN1CCN(C(c2ccccc2)c2ccccc2)CC1 [OXATOMIDE] | 1.7 µM | > 30 µM | > 30 µM | 22 µM | 0.9 µM | > 30 µM | – | > 30 µM | > 30 µM | > 30 µM | 8.8 µM | 3.2 µM | > 30 µM |
| Fc1ccc([C@@H]2CCNC[C@H]2COc2ccc3c(c2)OCO3)cc1 [PAROXETINE] | > 30 µM | > 10 µM | > 30 µM | > 10 µM | – | > 30 µM | 19.1 µM | > 30 µM | > 10 µM | > 10 µM | > 30 µM | – | > 30 µM |
| c1ccc(C2(N3CCCCC3)CCCCC2)cc1 [PHENCYCLIDINE] | – | – | > 30 µM | > 30 µM | 2.6 µM | > 30 µM | > 30 µM | > 30 µM | > 30 µM | > 30 µM | > 30 µM | 12 µM | > 30 µM |
| COc1cc(C(=O)OCc2cccc(COC(=O)c3cc(OC)c(OC)c(OC)c3)n2)cc(OC)c1OC [PIROZADIL] | – | > 30 µM | > 30 µM | > 30 µM | > 30 µM | > 30 µM | > 30 µM | > 30 µM | > 30 µM | > 30 µM | > 30 µM | > 30 µM | > 30 µM |
| CCOC(=O)[C@@H](N)Cc1ccc(-c2cc(O[C@H](c3ccc(Cl)cc3-n3ccc(C)n3)C(F)(F)F)nc(N)n2)cc1 [TELOTRISTAT ETHYL] | > 30 µM | > 30 µM | – | > 30 µM | 18 µM | 10 µM | > 30 µM | 23 µM | > 30 µM | 24 µM | 28 µM | 16 µM | > 30 µM |
| CC(C(=O)O)c1ccc2c(c1)CC(=O)c1ccccc1S2 (stereo unspecified) [ZALTOPROFEN] | > 30 µM | – | > 30 µM | > 30 µM | > 30 µM | > 30 µM | > 30 µM | > 30 µM | > 30 µM | > 30 µM | > 30 µM | > 30 µM | > 30 µM |
| CC(c1cc2ccccc2s1)N(O)C(N)=O (stereo unspecified) [ZILEUTON] | > 30 µM | > 10 µM | > 10 µM | – | > 10 µM | > 10 µM | > 10 µM | > 30 µM | > 10 µM | > 30 µM | > 10 µM | > 10 µM | > 30 µM |

Source: ChEMBL document CHEMBL5291721, “A preclinical secondary pharmacology resource illuminates target-adverse drug reaction associations of marketed drugs” (Nat Commun, 2023)
